Patent US20240400577A1, “MODULATORS OF PROTEIN KINASES” (VIBLIOME THERAPEUTICS, LLC, priority 2021, published 2024)

Columns and labels:
Experiment in all cases: Kinase panel enzymatic inhibition assay (Nanosyn)
Format in all cases: biochemical
Details in all cases: compound 5 μM; ATP at Km; 30-minute pre-incubation
SGK3 = target: T1, SGK3 (Homo sapiens, UniProt Q96BR1)
T1 construct: Nanosyn (contract laboratory that ran the panel)
T1 sequence (Q96BR1 1-496): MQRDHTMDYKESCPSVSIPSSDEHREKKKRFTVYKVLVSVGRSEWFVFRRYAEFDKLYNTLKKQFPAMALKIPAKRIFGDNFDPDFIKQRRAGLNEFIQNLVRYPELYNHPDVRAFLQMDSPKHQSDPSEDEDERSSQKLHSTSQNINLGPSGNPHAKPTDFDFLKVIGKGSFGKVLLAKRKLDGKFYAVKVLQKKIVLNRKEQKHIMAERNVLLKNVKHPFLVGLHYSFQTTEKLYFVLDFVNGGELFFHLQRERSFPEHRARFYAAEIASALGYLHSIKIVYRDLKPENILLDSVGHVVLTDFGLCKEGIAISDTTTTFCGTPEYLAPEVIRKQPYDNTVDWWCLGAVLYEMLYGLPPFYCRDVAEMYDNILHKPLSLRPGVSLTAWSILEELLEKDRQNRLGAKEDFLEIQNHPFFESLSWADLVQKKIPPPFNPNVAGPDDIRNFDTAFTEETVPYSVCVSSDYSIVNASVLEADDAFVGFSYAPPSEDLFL
Method in brief: (§1)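 Read-out is percent inhibition or IC50, obtained by mobility shift, ADP detection or time-resolved fluorescence detection. Each kinase was run with ATP at its Km, and compound at 5 μM was pre-incubated for 30 minutes.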

KDR = target: T2, KDR (Homo sapiens, UniProt P35968)
T2 construct: purchased Nanosyn (contract screening)
T2 sequence (P35968 20-1356): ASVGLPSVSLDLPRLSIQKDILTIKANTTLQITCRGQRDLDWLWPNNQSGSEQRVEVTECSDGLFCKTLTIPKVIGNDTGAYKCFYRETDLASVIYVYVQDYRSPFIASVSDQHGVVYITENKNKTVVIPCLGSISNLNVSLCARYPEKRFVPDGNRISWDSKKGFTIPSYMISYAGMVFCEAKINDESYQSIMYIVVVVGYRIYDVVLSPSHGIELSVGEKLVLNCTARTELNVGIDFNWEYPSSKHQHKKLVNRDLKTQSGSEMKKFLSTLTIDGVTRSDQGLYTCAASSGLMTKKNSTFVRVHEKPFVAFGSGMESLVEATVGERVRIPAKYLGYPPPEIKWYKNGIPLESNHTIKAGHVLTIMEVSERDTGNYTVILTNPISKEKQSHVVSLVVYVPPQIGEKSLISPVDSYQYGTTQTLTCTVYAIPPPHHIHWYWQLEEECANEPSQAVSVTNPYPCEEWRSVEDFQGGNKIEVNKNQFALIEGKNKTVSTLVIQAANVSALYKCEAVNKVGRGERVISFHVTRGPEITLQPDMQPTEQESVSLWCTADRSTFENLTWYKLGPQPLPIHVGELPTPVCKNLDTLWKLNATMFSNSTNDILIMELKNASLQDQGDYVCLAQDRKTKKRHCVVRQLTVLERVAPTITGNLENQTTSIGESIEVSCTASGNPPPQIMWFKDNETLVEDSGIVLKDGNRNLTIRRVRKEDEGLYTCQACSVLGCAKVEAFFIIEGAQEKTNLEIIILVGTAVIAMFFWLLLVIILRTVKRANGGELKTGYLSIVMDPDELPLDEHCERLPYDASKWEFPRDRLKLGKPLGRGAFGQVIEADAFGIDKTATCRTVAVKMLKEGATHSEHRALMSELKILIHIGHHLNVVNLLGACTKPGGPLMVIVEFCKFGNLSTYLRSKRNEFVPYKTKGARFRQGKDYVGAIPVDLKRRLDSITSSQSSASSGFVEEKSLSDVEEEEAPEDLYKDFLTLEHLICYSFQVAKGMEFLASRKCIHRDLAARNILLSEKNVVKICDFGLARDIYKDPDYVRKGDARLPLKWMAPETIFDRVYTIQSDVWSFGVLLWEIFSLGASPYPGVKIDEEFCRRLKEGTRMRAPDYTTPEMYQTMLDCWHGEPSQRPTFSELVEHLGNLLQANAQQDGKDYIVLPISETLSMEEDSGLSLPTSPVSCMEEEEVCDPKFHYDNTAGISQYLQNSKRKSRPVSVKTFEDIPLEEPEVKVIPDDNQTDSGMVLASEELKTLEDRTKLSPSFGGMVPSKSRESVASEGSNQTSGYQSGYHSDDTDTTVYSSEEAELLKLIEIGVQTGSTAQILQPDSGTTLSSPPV
Method in brief: as §1

ZAK = target: T3, ZAK (Homo sapiens, UniProt Q9NYL2)
T3 construct: Nanosyn (contract laboratory that ran the panel)
T3 sequence (Q9NYL2 whole entry): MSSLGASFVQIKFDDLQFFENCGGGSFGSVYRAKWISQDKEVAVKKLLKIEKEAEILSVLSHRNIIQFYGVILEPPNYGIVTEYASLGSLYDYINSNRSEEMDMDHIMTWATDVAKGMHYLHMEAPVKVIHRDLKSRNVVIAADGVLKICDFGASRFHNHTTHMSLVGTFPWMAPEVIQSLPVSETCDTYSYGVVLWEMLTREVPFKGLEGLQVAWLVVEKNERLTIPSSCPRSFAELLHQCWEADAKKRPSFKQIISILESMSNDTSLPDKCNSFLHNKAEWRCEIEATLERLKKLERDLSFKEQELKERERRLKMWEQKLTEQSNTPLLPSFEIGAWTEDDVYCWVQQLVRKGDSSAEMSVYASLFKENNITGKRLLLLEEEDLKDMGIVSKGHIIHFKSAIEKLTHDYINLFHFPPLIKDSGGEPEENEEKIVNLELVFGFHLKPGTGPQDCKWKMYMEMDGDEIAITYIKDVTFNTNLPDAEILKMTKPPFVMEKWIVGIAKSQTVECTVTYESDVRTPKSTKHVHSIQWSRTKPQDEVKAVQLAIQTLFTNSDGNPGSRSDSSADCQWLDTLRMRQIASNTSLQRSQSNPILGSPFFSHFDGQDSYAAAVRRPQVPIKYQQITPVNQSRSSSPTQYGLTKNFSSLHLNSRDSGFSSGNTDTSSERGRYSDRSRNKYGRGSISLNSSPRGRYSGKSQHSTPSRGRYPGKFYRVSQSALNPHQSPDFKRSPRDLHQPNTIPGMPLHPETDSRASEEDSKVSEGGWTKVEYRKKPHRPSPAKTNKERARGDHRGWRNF
Method in brief: as §1

Abl2 = target: T4, Abl2 (Homo sapiens, UniProt P42684)
T4 construct: purchased Nanosyn (contract screening)
Method in brief: as §1

SGK2 = target: T5, SGK2 (Homo sapiens, UniProt Q9HBY8)
T5 construct: Nanosyn (contract laboratory that ran the panel)
T5 sequence (Q9HBY8 1-367): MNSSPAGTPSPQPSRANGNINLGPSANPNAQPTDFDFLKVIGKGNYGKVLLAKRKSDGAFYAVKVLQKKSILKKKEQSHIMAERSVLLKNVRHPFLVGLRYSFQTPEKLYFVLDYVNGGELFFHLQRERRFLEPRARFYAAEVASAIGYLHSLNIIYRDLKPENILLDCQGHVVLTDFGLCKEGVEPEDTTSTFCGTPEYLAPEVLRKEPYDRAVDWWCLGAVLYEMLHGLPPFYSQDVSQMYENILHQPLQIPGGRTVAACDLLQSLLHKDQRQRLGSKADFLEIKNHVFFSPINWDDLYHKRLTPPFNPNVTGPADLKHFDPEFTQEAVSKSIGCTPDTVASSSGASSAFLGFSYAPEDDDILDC
Method in brief: as §1

PIKfyve = target: T6, PIKfyve (Homo sapiens, UniProt Q9Y2I7)
T6 construct: Nanosyn (contract laboratory that ran the panel)
Method in brief: as §1

EPH = test system: EPH
Method in brief: as §1

COT1 = target: T7, COT1 (Homo sapiens, UniProt P41279)
T7 construct: purchased Nanosyn (contract screening)
T7 sequence (P41279 whole entry): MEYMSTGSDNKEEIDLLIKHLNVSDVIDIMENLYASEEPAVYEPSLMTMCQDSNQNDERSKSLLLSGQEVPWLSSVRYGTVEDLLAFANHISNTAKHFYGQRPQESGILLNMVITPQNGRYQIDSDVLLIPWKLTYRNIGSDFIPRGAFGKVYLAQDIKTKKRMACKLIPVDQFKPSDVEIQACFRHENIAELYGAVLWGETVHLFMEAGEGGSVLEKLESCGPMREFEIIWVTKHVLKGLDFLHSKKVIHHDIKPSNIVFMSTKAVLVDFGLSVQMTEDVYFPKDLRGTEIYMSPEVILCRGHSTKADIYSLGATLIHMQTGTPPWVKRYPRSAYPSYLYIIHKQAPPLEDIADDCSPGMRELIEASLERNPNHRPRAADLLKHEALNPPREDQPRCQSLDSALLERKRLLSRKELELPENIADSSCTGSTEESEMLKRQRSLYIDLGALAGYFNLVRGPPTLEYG
Method in brief: as §1

ARAF = target: T8, ARAF (Homo sapiens, UniProt P10398)
T8 construct: purchased Nanosyn (contract screening)
T8 sequence (P10398 1-606): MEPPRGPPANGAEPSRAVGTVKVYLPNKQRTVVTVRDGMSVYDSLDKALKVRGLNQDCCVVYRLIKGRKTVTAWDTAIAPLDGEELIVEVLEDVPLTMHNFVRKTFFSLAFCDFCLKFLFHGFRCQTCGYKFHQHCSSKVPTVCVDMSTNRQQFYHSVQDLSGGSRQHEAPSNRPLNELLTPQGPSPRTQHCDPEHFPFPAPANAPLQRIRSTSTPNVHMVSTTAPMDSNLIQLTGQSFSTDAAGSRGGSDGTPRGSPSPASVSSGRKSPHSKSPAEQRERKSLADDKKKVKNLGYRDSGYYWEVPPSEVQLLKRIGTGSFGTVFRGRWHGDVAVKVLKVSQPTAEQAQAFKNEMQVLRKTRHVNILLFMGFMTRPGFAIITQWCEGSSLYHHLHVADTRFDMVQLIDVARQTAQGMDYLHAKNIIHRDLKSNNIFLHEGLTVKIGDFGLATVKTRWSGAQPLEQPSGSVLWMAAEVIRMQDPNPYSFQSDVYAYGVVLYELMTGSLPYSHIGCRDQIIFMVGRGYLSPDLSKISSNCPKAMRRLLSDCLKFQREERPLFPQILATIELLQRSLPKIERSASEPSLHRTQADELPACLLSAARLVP
Method in brief: as §1

MNK2 = target: T9, MNK2 (Homo sapiens, UniProt Q9HBH9)
T9 construct: Nanosyn (contract laboratory that ran the panel)
Method in brief: as §1

FYN = target: T10, FYN (Homo sapiens, UniProt P06241)
T10 construct: purchased Nanosyn (contract screening)
Method in brief: as §1

CRAF = target: T11, CRAF (Homo sapiens, UniProt P04049)
T11 construct: purchased Nanosyn (contract screening)
Method in brief: as §1

p38b = target: T12, p38b (Homo sapiens, UniProt Q15759)
T12 construct: Nanosyn (contract laboratory that ran the panel)
Method in brief: as §1

RET = target: T13, RET (Homo sapiens, UniProt P07949)
T13 construct: Nanosyn (contract laboratory that ran the panel)
T13 sequence (P07949 29-1114): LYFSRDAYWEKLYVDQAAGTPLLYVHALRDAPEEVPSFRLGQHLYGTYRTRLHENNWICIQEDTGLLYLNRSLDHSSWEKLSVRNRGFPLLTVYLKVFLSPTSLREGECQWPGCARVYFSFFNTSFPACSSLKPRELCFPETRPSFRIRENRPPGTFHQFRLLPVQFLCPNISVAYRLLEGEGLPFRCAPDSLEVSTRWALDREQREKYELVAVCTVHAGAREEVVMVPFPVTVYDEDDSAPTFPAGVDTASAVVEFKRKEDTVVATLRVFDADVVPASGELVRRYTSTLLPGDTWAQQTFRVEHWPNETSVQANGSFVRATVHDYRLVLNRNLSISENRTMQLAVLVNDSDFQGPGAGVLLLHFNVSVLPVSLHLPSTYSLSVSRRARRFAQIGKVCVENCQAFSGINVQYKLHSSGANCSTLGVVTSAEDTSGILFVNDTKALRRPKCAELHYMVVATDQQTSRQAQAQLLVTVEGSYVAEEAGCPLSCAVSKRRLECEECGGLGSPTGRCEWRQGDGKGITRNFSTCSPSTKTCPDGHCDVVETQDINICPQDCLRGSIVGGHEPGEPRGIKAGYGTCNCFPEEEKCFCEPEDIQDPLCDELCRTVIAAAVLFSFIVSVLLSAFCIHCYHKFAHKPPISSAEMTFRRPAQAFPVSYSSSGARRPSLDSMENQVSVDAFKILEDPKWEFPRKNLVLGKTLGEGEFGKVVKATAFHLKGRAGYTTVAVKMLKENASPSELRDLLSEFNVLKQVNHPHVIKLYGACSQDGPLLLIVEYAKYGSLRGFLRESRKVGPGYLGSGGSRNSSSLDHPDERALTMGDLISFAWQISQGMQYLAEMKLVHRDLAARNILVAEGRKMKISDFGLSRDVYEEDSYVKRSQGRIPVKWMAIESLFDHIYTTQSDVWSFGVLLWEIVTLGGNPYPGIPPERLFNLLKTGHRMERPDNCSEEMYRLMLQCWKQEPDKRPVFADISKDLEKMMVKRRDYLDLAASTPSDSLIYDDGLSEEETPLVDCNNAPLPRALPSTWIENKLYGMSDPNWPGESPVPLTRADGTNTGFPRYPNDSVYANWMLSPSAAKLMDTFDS
Method in brief: as §1

FGR = target: T14, FGR (Homo sapiens, UniProt P09769)
T14 construct: purchased Nanosyn (contract screening)
T14 sequence (P09769 whole entry): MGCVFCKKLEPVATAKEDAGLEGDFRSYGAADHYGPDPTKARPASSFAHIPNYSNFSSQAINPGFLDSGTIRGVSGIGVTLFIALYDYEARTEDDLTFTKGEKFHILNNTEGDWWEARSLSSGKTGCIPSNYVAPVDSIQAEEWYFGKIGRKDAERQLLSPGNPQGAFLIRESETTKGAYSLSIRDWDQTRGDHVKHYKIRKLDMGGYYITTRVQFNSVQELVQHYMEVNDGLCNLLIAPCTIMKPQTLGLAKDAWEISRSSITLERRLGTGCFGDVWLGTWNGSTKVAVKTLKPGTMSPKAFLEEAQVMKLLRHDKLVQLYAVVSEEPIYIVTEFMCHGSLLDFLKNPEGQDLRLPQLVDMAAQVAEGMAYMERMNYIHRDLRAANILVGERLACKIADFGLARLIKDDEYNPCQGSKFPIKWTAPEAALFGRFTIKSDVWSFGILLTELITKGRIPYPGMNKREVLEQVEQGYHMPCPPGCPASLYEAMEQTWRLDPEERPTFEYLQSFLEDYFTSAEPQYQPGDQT
Method in brief: as §1

LYNa = target: T15, LYNa (Homo sapiens, UniProt P07948)
T15 construct: purchased Nanosyn (contract screening)
T15 sequence (P07948 whole entry): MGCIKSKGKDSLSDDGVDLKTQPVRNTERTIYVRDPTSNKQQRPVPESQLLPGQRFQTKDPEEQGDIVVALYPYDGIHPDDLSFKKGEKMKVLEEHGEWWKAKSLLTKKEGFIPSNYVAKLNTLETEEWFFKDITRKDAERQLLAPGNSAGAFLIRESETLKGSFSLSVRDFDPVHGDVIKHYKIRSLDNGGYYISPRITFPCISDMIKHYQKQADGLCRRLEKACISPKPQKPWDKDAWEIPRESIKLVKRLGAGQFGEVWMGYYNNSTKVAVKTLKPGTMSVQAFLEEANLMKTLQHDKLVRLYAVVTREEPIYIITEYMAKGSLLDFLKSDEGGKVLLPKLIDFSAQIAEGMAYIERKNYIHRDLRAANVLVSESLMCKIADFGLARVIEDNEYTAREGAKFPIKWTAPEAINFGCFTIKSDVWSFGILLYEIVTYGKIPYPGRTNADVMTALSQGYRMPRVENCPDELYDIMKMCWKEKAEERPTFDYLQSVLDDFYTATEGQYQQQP
Method in brief: as §1

LYNb = target: T16, LYNb (Homo sapiens, UniProt P07948)
T16 construct: purchased Nanosyn (contract screening)
Method in brief: as §1

BLK = target: T17, BLK (Homo sapiens, UniProt P51451)
T17 construct: purchased Nanosyn (contract screening)
Method in brief: as §1

Cc1ccc(NC(=O)c2cc(S(C)(=O)=O)n(-c3ccc(F)cc3)n2)cc1Nc1nccc(-c2cccnc2N)n1 [Ex13, N-(3-((4-(2-aminopyridin-3-yl)pyrimidin-2-yl)amino)-4-methylphenyl)-1-(4-fluorophenyl)-5-(methylsulfonyl)-1H-pyrazole-3-carboxamide]
inhibition at 5 µM (SGK3): < 79% | inhibition at 5 µM (KDR): < 79% | inhibition at 5 µM (ZAK): < 79% | inhibition at 5 µM (Abl2): ≥ 95% | inhibition at 5 µM (SGK2): < 79% | inhibition at 5 µM (PIKfyve): < 79% | kinase inhibition, EPH (EPH): D (D=79% and less) | inhibition at 5 µM (COT1): < 79% | inhibition at 5 µM (ARAF): ≥ 95% | inhibition at 5 µM (MNK2): < 79% | inhibition at 5 µM (FYN): < 79% | inhibition at 5 µM (CRAF): < 79% | inhibition at 5 µM (p38b): < 79% | inhibition at 5 µM (RET): < 79% | inhibition at 5 µM (FGR): < 79% | inhibition at 5 µM (LYNa): ≥ 95% | inhibition at 5 µM (LYNb): ≥ 95% | inhibition at 5 µM (BLK): < 79%
